Data as given in ChEMBL document CHEMBL1126625, “7-Azetidinylquinolones as antibacterial agents. Synthesis and structure-activity relationships” (J Med Chem, 1993).
Converted amounts (≈) assume the structure as drawn.

How the values were obtained:
Assay type in all cases: functional
[1] = test system: Staphylococcus epidermidis; test: Minimum inhibitory concentration (MIC) preventing growth of Staphylococcus epidermidis
[2] = test system: Bacillus cereus; test: Minimum inhibitory concentration (MIC) preventing growth of Bacillus cereus
[3] = test system: Bacillus subtilis; test: Minimum inhibitory concentration (MIC) preventing growth of Bacillus subtilis
[4] = test system: Morganella morganii; test: Minimum inhibitory concentration (MIC) preventing growth of Morganella morganii
[5] = test system: Proteus vulgaris; test: Minimum inhibitory concentration (MIC) preventing growth of Proteus vulgaris
[6] = test system: Enterococcus faecalis; test: Minimum inhibitory concentration (MIC) preventing growth of Streptococcus faecalis ATCC 10541
[7] = test system: Pseudomonas aeruginosa; test: Minimum inhibitory concentration (MIC)preventing growth of Pseudomonas aeruginosa
[8] = test system: Enterobacter cloacae; test: Minimum inhibitory concentration (MIC)preventing growth of Enterobacter cloacae
[9] = test system: Klebsiella pneumoniae; test: Minimum inhibitory concentration (MIC)preventing growth of Klebsiella pneumoniae
[10] = test system: Staphylococcus aureus; test: Minimum inhibitory concentration (MIC) preventing growth of […]
[11] = test system: Escherichia coli; test: Minimum inhibitory concentration (MIC)preventing growth of Escherichia coli

| Compound | MIC [1] | MIC [2] | MIC [3] | MIC [4] | MIC [5] | MIC [6] | MIC [7] | MIC [8] | MIC [9] | MIC [10] | MIC [11] |
| --- | --- | --- | --- | --- | --- | --- | --- | --- | --- | --- | --- |
| CCn1cc(C(=O)O)c(=O)c2cc(F)c(N3CC(C)(N)C3)nc21 | 1 µg/mL (≈ 3.12 µM) | 1 µg/mL (≈ 3.12 µM) | 0.25 µg/mL (≈ 0.78 µM) | 0.25 µg/mL (≈ 0.78 µM) | 1 µg/mL (≈ 3.12 µM) | 2 µg/mL (≈ 6.24 µM) | 2 µg/mL (≈ 6.24 µM) | 0.25 µg/mL (≈ 0.78 µM) | 0.12 µg/mL (≈ 0.375 µM) | 1 µg/mL (≈ 3.12 µM) | 0.25 µg/mL (≈ 0.78 µM) |
| CC1(N)CN(c2c(F)cc3c(=O)c(C(=O)O)cn(CCF)c3c2F)C1 | 1 µg/mL (≈ 2.81 µM) | 1 µg/mL (≈ 2.81 µM) | 0.25 µg/mL (≈ 0.704 µM) | 1 µg/mL (≈ 2.81 µM) | 1 µg/mL (≈ 2.81 µM) | 4 µg/mL (≈ 11.3 µM) | 4 µg/mL (≈ 11.3 µM) | 1 µg/mL (≈ 2.81 µM) | 1 µg/mL (≈ 2.81 µM) | 1 µg/mL (≈ 2.81 µM) | 1 µg/mL (≈ 2.81 µM) |
| CC1(CN)CN(c2c(F)cc3c(=O)c(C(=O)O)cn(C4CC4)c3c2F)C1 | 0.5 µg/mL (≈ 1.38 µM) | 0.5 µg/mL (≈ 1.38 µM) | 0.25 µg/mL (≈ 0.688 µM) | 3 µg/mL (≈ 8.26 µM) | 1 µg/mL (≈ 2.75 µM) | 2 µg/mL (≈ 5.5 µM) | 4 µg/mL (≈ 11 µM) | 0.5 µg/mL (≈ 1.38 µM) | 0.25 µg/mL (≈ 0.688 µM) | 1 µg/mL (≈ 2.75 µM) | 0.5 µg/mL (≈ 1.38 µM) |
| O=C(O)c1cn(C2CC2)c2c(F)c(N3CCC3)c(F)cc2c1=O | 0.12 µg/mL (≈ 0.375 µM) | 0.25 µg/mL (≈ 0.781 µM) | 0.015 µg/mL (≈ 0.0468 µM) | 0.25 µg/mL (≈ 0.781 µM) | 0.25 µg/mL (≈ 0.781 µM) | 1 µg/mL (≈ 3.12 µM) | 2 µg/mL (≈ 6.24 µM) | 0.25 µg/mL (≈ 0.781 µM) | 0.25 µg/mL (≈ 0.781 µM) | 0.25 µg/mL (≈ 0.781 µM) | 0.25 µg/mL (≈ 0.781 µM) |
| CCn1cc(C(=O)O)c(=O)c2cc(F)c(N3CC(C)(N)C3)c(Cl)c21 | 0.25 µg/mL (≈ 0.707 µM) | 0.25 µg/mL (≈ 0.707 µM) | 0.06 µg/mL (≈ 0.17 µM) | 0.06 µg/mL (≈ 0.17 µM) | 0.5 µg/mL (≈ 1.41 µM) | 1 µg/mL (≈ 2.83 µM) | 1 µg/mL (≈ 2.83 µM) | 0.06 µg/mL (≈ 0.17 µM) | 0.03 µg/mL (≈ 0.0848 µM) | 0.25 µg/mL (≈ 0.707 µM) | 0.03 µg/mL (≈ 0.0848 µM) |
| CCNCC1(C)CN(c2cc3c(cc2F)c(=O)c(C(=O)O)cn3C2CC2)C1 | 0.5 µg/mL (≈ 1.34 µM) | 0.12 µg/mL (≈ 0.321 µM) | 0.12 µg/mL (≈ 0.321 µM) | 0.5 µg/mL (≈ 1.34 µM) | 0.25 µg/mL (≈ 0.669 µM) | 1 µg/mL (≈ 2.68 µM) | 4 µg/mL (≈ 10.7 µM) | 0.25 µg/mL (≈ 0.669 µM) | 0.5 µg/mL (≈ 1.34 µM) | 0.25 µg/mL (≈ 0.669 µM) | 0.12 µg/mL (≈ 0.321 µM) |
| CC(=O)CN(C)C1(C)CN(c2cc3c(cc2F)c(=O)c(C(=O)O)cn3C2CC2)C1 | 0.25 µg/mL (≈ 0.623 µM) | 0.25 µg/mL (≈ 0.623 µM) | 0.06 µg/mL (≈ 0.149 µM) | 0.5 µg/mL (≈ 1.25 µM) | 0.5 µg/mL (≈ 1.25 µM) | 2 µg/mL (≈ 4.98 µM) | 4 µg/mL (≈ 9.96 µM) | 0.25 µg/mL (≈ 0.623 µM) | 0.015 µg/mL (≈ 0.0374 µM) | 0.25 µg/mL (≈ 0.623 µM) | 0.25 µg/mL (≈ 0.623 µM) |
| O=C(O)c1cn(C2CC2)c2c(F)c(N3CC(C(=O)O)C3)c(F)cc2c1=O | > 16 µg/mL | > 16 µg/mL | > 16 µg/mL | > 16 µg/mL | > 16 µg/mL | > 16 µg/mL | > 16 µg/mL | > 16 µg/mL | > 16 µg/mL | > 16 µg/mL | > 16 µg/mL |
| N#CC1CN(c2c(F)cc3c(=O)c(C(=O)O)cn(C4CC4)c3c2F)C1 | 0.5 µg/mL (≈ 1.45 µM) | 0.5 µg/mL (≈ 1.45 µM) | 0.06 µg/mL (≈ 0.174 µM) | 1 µg/mL (≈ 2.9 µM) | 1 µg/mL (≈ 2.9 µM) | 4 µg/mL (≈ 11.6 µM) | 8 µg/mL (≈ 23.2 µM) | 1 µg/mL (≈ 2.9 µM) | 0.5 µg/mL (≈ 1.45 µM) | 1 µg/mL (≈ 2.9 µM) | 1 µg/mL (≈ 2.9 µM) |

Other lines, results leading:

| MIC [1] | MIC [2] | MIC [3] | MIC [4] | MIC [5] | MIC [6] | MIC [7] | MIC [8] | MIC [9] | MIC [10] | MIC [11] | Compound |
| --- | --- | --- | --- | --- | --- | --- | --- | --- | --- | --- | --- |
| 0.12 µg/mL (≈ 0.331 µM) | 0.06 µg/mL (≈ 0.166 µM) | 0.015 µg/mL (≈ 0.0414 µM) | 0.25 µg/mL (≈ 0.69 µM) | 0.25 µg/mL (≈ 0.69 µM) | 1 µg/mL (≈ 2.76 µM) | 2 µg/mL (≈ 5.52 µM) | 0.12 µg/mL (≈ 0.331 µM) | 0.015 µg/mL (≈ 0.0414 µM) | 0.12 µg/mL (≈ 0.331 µM) | 0.06 µg/mL (≈ 0.166 µM) | CNC1(C)CN(c2nc3c(cc2F)c(=O)c(C(=O)O)cn3C(C)(C)C)C1 |
| 0.12 µg/mL (≈ 0.346 µM) | 1 µg/mL (≈ 2.89 µM) | 0.015 µg/mL (≈ 0.0433 µM) | 0.5 µg/mL (≈ 1.44 µM) | 0.25 µg/mL (≈ 0.722 µM) | 1 µg/mL (≈ 2.89 µM) | 2 µg/mL (≈ 5.77 µM) | 0.25 µg/mL (≈ 0.722 µM) | 0.12 µg/mL (≈ 0.346 µM) | 0.12 µg/mL (≈ 0.346 µM) | 0.12 µg/mL (≈ 0.346 µM) | CCC1(O)CN(c2cc3c(cc2F)c(=O)c(C(=O)O)cn3C2CC2)C1 |
| 0.06 µg/mL (≈ 0.173 µM) | 0.06 µg/mL (≈ 0.173 µM) | 0.03 µg/mL (≈ 0.0866 µM) | 0.015 µg/mL (≈ 0.0433 µM) | 0.12 µg/mL (≈ 0.346 µM) | 0.12 µg/mL (≈ 0.346 µM) | 0.25 µg/mL (≈ 0.722 µM) | 0.03 µg/mL (≈ 0.0866 µM) | 0.03 µg/mL (≈ 0.0866 µM) | 0.06 µg/mL (≈ 0.173 µM) | 0.007 µg/mL (≈ 0.0202 µM) | NC1CN(c2cc3c(cc2F)c(=O)c2c(=O)[nH]sc2n3C2CC2)C1 |
| 0.06 µg/mL (≈ 0.159 µM) | 0.12 µg/mL (≈ 0.317 µM) | 0.03 µg/mL (≈ 0.0793 µM) | 0.06 µg/mL (≈ 0.159 µM) | 0.12 µg/mL (≈ 0.317 µM) | 0.5 µg/mL (≈ 1.32 µM) | 0.5 µg/mL (≈ 1.32 µM) | 0.06 µg/mL (≈ 0.159 µM) | 0.06 µg/mL (≈ 0.159 µM) | 0.12 µg/mL (≈ 0.317 µM) | 0.06 µg/mL (≈ 0.159 µM) | CC1(N)CN(c2c(F)cc3c(=O)c4c(=O)[nH]sc4n(C4CC4)c3c2F)C1 |
| 0.06 µg/mL (≈ 0.16 µM) | 0.12 µg/mL (≈ 0.32 µM) | 0.03 µg/mL (≈ 0.0801 µM) | 0.06 µg/mL (≈ 0.16 µM) | 0.06 µg/mL (≈ 0.16 µM) | 0.5 µg/mL (≈ 1.34 µM) | 1 µg/mL (≈ 2.67 µM) | 0.06 µg/mL (≈ 0.16 µM) | 0.06 µg/mL (≈ 0.16 µM) | 0.06 µg/mL (≈ 0.16 µM) | 0.03 µg/mL (≈ 0.0801 µM) | CN(C)C1CN(c2cc3c(cc2F)c(=O)c2c(=O)[nH]sc2n3C2CC2)C1 |
